Source: PubChem BioAssay (NCI)
“And” between values parts separate entries of the source, which are not always exact repeats. Identical values can stand only once.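 Cultured in 96-well plates, cells were exposed to test compound for 48 hours across five concentrations. GI50 = concentration required for 50% inhibition of growth. TGI: concentration producing complete growth inhibition.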 Where a SMILES comes first, the peptide text is derived from it. [ ]: non-standard residue; d: D form. The star is where a group is joined. Bn2Val = CC(C)[C@@H](C(=O)*)N(Cc1ccccc1)Cc1ccccc1; NMeV = CN[C@H](C(=O)O)C(C)C; X29 = COc1ccc(CN*)c(OC)c1; dNMeA = CN[C@H](C)C(=O)O; Boc = CC(C)(C)OC(=O)*; OBn = c1ccc(CO*)cc1

Legend:
Test in all cases: NCI tumour cell line growth inhibition, 48 h
[1] = tested on: EKVX NSCLC
[2] = tested on: KM12 colon
[3] = tested on: MALME-3M melanoma
[4] = tested on: OVCAR-3 ovarian
[5] = tested on: OVCAR-8 ovarian
[6] = tested on: SF-268 CNS
[7] = tested on: SF-539 CNS
[8] = tested on: SK-MEL-5 melanoma
[9] = tested on: SNB-75 CNS
[10] = tested on: U251 CNS

Compound | TGI [1] | TGI [2] | TGI [3] | TGI [4] | TGI [5] | TGI [6] | TGI [7] | TGI [8] | TGI [9] | TGI [10] | GI50 [1] | GI50 [2] | GI50 [3] | GI50 [4] | GI50 [5] | GI50 [6] | GI50 [7] | GI50 [8] | GI50 [9] | GI50 [10]
CC(C)(C)C(=O)OCC1OC(N=[N+]=[N-])C(OC(=O)C(C)(C)C)C(OC(=O)C(C)(C)C)C1OC(=O)C(C)(C)C (stereo not drawn) | > 100 µM | > 100 µM | > 100 µM | > 100 µM | > 100 µM | > 100 µM | > 100 µM | > 100 µM | > 100 µM | > 100 µM | – | – | – | – | – | – | – | – | – | –
COc1ccc(CNC(=O)[C@@H]2CCCN2C(=O)[C@@H](C)N(C)C(=O)[C@H](C(C)C)N(C)C(=O)[C@@H](NC(=O)[C@H](C(C)C)N(Cc2ccccc2)Cc2ccccc2)C(C)C)c(OC)c1 (Bn2Val-V[NMeV][dNMeA]P-X29) | 12 µM | 5.78 µM | 36.7 µM | 14.7 µM | 57.6 µM | > 100 µM | 4.69 µM | – | 7.26 µM | 5.21 µM | – | – | – | – | – | – | – | – | – | –
CCCC1C(=O)Nc2cccc3ncn(c23)C1=O (stereo not drawn) | > 100 µM | > 100 µM | > 100 µM | > 100 µM | > 100 µM | > 100 µM | > 100 µM | > 100 µM | > 100 µM | > 100 µM | – | – | – | – | – | – | – | – | – | –
O=c1[nH]c(=O)n(COCCO)c2ccsc12 | > 100 µM | > 100 µM | > 100 µM | > 100 µM | > 100 µM | > 100 µM | > 100 µM | > 100 µM | > 100 µM | > 100 µM | – | – | – | – | – | – | – | – | – | –
CN1CN(c2ccccc2)C2(CCN(CCCCCCF)CC2)C1=O | > 100 µM | > 100 µM | > 100 µM | > 100 µM | > 100 µM | > 100 µM | 92.4 µM | > 100 µM | > 100 µM | > 100 µM | – | – | – | – | – | – | – | – | – | –
CCOC(=O)C(NC(=O)CC)(Nc1ccc(S(=O)(=O)Nc2onc(C)c2C)cc1)C(F)(F)F (stereo not drawn) | > 100 µM | > 100 µM | > 100 µM | > 100 µM | > 100 µM | > 100 µM | > 100 µM | > 100 µM | > 100 µM | > 100 µM | – | – | – | – | – | – | – | – | – | –
Cc1ccc(S(=O)(=O)[C@@H](Cl)[C@H]2N=C(Cl)NN=C2c2ccccc2)cc1 | > 100 µM | 50 µM | 41.7 µM | 31.3 µM | 44.6 µM | 38.8 µM | 61.1 µM | 34.5 µM | 97.4 µM | 55.9 µM | – | – | – | – | – | – | – | – | – | –
Cc1ccc(-c2cc(O)c3nc4ccccc4n3c2)cc1 | > 100 µM | > 100 µM | > 100 µM | > 100 µM | > 100 µM | > 100 µM | > 100 µM | – | > 100 µM | > 100 µM | – | – | – | – | – | – | – | – | – | –
Cc1ccc(N(O)C(C)(C)C)cc1 | > 100 µM | > 100 µM | > 100 µM | > 100 µM | > 100 µM | > 100 µM | > 100 µM | > 100 µM | > 100 µM | > 100 µM | – | – | – | – | – | – | – | – | – | –
Cc1cccc2nc3c(=O)[nH]c(=O)nc-3n(C)c12 | > 100 µM | > 100 µM | 38.5 µM | > 100 µM | > 100 µM | > 100 µM | > 100 µM | > 100 µM | > 100 µM | > 100 µM | – | – | – | – | – | – | – | – | – | –
COC(=O)c1c(C)cccc1C1CN=NC12Cc1ccc(C)c(C)c1C2=O (stereo not drawn) | 82.5 µM | > 100 µM | > 100 µM | > 100 µM | > 100 µM | > 100 µM | > 100 µM | – | > 100 µM | > 100 µM | – | – | – | – | – | – | – | – | – | –
Cn1c([C@H](C#N)C(=O)c2cc(O)ccc2[N+](=O)[O-])nc2ccccc21 | > 100 µM | > 100 µM | > 100 µM | > 100 µM | > 100 µM | > 100 µM | > 100 µM | > 100 µM | > 100 µM | > 100 µM | – | – | – | – | – | – | – | – | – | –
CCOC(=O)NNC(=O)NCc1ccccc1CNC(=O)NNC(=O)OCC | > 100 µM | > 100 µM | > 100 µM | > 100 µM | > 100 µM | > 100 µM | > 100 µM | > 100 µM | > 100 µM | > 100 µM | – | – | – | – | – | – | – | – | – | –
OCC(CCc1ccccc1I)C1=CCC2(CC1)OCCO2 (stereo not drawn) | 58.4 µM | 31 µM | 33.6 µM | 41.3 µM | 43.1 µM | 50 µM | 32.5 µM | 27.8 µM | 52 µM | 41.8 µM | – | – | – | – | – | – | – | – | – | –
COC(=O)C1=C(O)C(C(=O)OC)[C@]2(O)[C@@H](C(=O)OC)[C@H]1C[C@@H](c1ccccc1)[C@@H]2C(=O)OC (stereo partly drawn) | 53.6 µM | 25.8 µM | 45.1 µM | 31.8 µM | – | 8.12 µM | 25.5 µM | – | > 100 µM | 30.7 µM | – | – | – | – | – | – | – | – | – | –
CC(C)CC(NC(=O)OC(C)(C)C)C(=O)NC(CC(=O)OCc1ccccc1)C(=O)OCc1ccccc1 (stereo not drawn) (Boc-Leu-Asp(OBn)-OBn; configuration not given here) | > 100 µM | > 100 µM | > 100 µM | 49.6 µM | > 100 µM | > 100 µM | 96.7 µM | 57.3 µM | > 100 µM | 81.7 µM | – | – | – | – | – | – | – | – | – | –
COC(=O)NNC(c1ccc(Cl)cc1)c1ccc(Cl)cc1 | 40 µM | 37 µM | 43.8 µM | 31.9 µM | 42.4 µM | 49 µM | 39 µM | 31.2 µM | 69 µM | 40.3 µM | – | – | – | – | – | – | – | – | – | –
CC(C)=CCOc1cc(NC(=S)c2ccsc2C)ccc1Cl | > 100 µM | > 100 µM | > 100 µM | > 100 µM | > 100 µM | > 100 µM | > 100 µM | > 100 µM | 66.4 µM | > 100 µM | – | – | – | – | – | – | – | – | – | –
O=S(=O)(c1ccc(-c2nnc(-c3ccc(F)cc3)o2)cc1)c1ccc(-c2nnc(-c3ccc(F)cc3)o2)cc1 | > 100 µM | > 100 µM | > 100 µM | > 100 µM | > 100 µM | > 100 µM | > 100 µM | > 100 µM | 26 µM | > 100 µM | – | – | – | – | – | – | – | – | – | –
C=C1[C@@](C)([C@@H]2CCCS2)[C@H]2C(C)=C[C@]1(C)n1c(=O)n(-c3ccccc3)c(=O)n12 | > 100 µM | > 100 µM | > 100 µM | > 100 µM | – | > 100 µM | > 100 µM | > 100 µM | > 100 µM | > 100 µM | – | – | – | – | – | – | – | – | – | –
C[S+](C)CC1OC(n2cnc3c(N)ncnc32)C(O)C1O (stereo not drawn) | > 225 µM | > 225 µM | > 225 µM | > 225 µM | > 225 µM | > 225 µM | > 225 µM | > 225 µM | > 225 µM | > 225 µM | – | – | – | – | – | – | – | – | – | –
CN(C)CCNC(=O)c1cccc2cc3cc(O)ccc3nc12 | 5.24 µM | 10.4 µM | 2.54 µM | 3.61 µM | 3.34 µM | 5.66 µM | 4.23 µM | 2.48 µM | 6.31 µM | 4.46 µM | – | – | – | – | – | – | – | – | – | –
CC(=O)NC1=C(NCCCl)C(=O)c2ccccc2C1=O | > 100 µM | > 100 µM | 27.1 µM | > 100 µM | 52.4 µM | > 100 µM | > 100 µM | 30.5 µM | > 100 µM | > 100 µM | – | – | – | – | – | – | – | – | – | –
Cc1ccc(-c2nnc(CCCCCCCCc3nnc(-c4ccc(C)cc4O)n3N)n2N)c(O)c1 | > 100 µM | > 100 µM | > 100 µM | > 100 µM | > 100 µM | > 100 µM | > 100 µM | – | > 100 µM | > 100 µM | – | – | – | – | – | – | – | – | – | –
COc1ccc(/C=C/C(=O)c2ccc(-n3cc(CN4CCN(c5cc6c(cc5F)c(=O)c(C(=O)O)cn6C5CC5)CC4)nn3)cc2)cc1OC | > 100 µM | 4.46 µM | 8.41 µM | 4.93 µM | > 100 µM | > 100 µM | 4.39 µM | 7.74 µM | 4.29 µM | > 100 µM | 4.24 µM | 1.57 µM | 2.59 µM | 1.84 µM | 4.03 µM | 3.09 µM | 1.91 µM | 2.64 µM | 1.49 µM | 1.48 µM
Cc1ccc(Sc2ccccc2[N+](=O)[O-])cc1 | > 100 µM | > 100 µM | > 100 µM | > 100 µM | > 100 µM | > 100 µM | > 100 µM | 30.8 µM | 40.6 µM | 61.7 µM | – | – | – | – | – | – | – | – | – | –
Cc1nc2n(c1/C=C1/C(=O)Nc3ccccc31)CCS2 | > 100 µM | > 100 µM | > 100 µM | > 100 µM | > 100 µM | > 100 µM | > 100 µM | > 100 µM | 87 µM | > 100 µM | – | – | – | – | – | – | – | – | – | –
O=NN(CCF)C(=O)NC1CC2CCC1C2 (stereo not drawn) | > 100 µM | > 100 µM | > 100 µM | > 100 µM | > 100 µM | > 100 µM | > 100 µM | > 100 µM | > 100 µM | > 100 µM | – | – | – | – | – | – | – | – | – | –
COCC1OC(S(=O)(=O)c2ccccc2)C(O)C(OC)C1OC (stereo not drawn) | > 100 µM | > 100 µM | > 100 µM | > 100 µM | > 100 µM | > 100 µM | > 100 µM | > 100 µM | > 100 µM | > 100 µM | – | – | – | – | – | – | – | – | > 100 µM and 12.1 µM | –
CN(C(=O)c1ccc2c(c1)sc1c(=O)n(C)c3ccccc3c12)c1ccccc1 | > 100 µM | > 100 µM | > 100 µM | > 100 µM | > 100 µM | – | > 100 µM | > 100 µM | > 100 µM | > 100 µM | – | – | – | – | – | – | – | – | – | –
